{"source": "patent US20050214389A1", "about": "“Beta-carotene enriched extract from water hyacinth eichhornia crassipes” (Council of Scientific and Industrial Research, priority 2004, published 2005)", "origin": "cited, not measured here", "data": [{"test_system": "polyamine oxidase", "conditions": "purified polyamine oxidase from leaves of water hyacinth", "values": [{"smiles": "O=C(O)c1cc[c]([Hg][Cl])cc1", "note": "[p-chloromercuribenzoate]", "inhibition of the enzyme": "without effect"}, {"smiles": "NCCCCCCCCN", "note": "[Octamethylenediamine]", "inhibition of the enzyme": "strong inhibitors"}, {"smiles": "CCN(CC)CCCC(C)Nc1c2ccc(Cl)cc2nc2ccc(OC)cc12", "note": "(stereo not shown) [quinacrine]", "inhibition of the enzyme": "strong inhibitors"}]}, {"test_system": "polyamine oxidase", "conditions": "substrate of purified polyamine oxidase from leaves of water hyacinth", "units": {"Km": "mM"}, "values": [{"smiles": "NCCCCNCCCN", "note": "[spermidine]", "Km": 28}, {"smiles": "NCCCNCCCCNCCCN", "note": "[spermine]", "Km": 20}]}, {"test_system": "Enterobacter sp. F2", "conditions": "concentrations of from 10-7 to 10-2 mol/L", "values": [{"smiles": "O=C(O)[C@@H]1CCCN1", "note": "[proline]", "chemotaxis (attraction of F2)": "not"}, {"smiles": "NCC(=O)O", "note": "[glycine]", "chemotaxis (attraction of F2)": "strongly attracted"}, {"smiles": "N[C@@H](Cc1c[nH]cn1)C(=O)O", "note": "[histidine]", "chemotaxis (attraction of F2)": "some degrees"}, {"smiles": "N[C@@H](CS)C(=O)O", "note": "[cysteine]", "chemotaxis (attraction of F2)": "not"}, {"smiles": "C[C@@H](O)[C@H](N)C(=O)O", "note": "[threonine]", "chemotaxis (attraction of F2)": "some degrees"}, {"smiles": "N[C@@H](CO)C(=O)O", "note": "[serine]", "chemotaxis (attraction of F2)": "strongly attracted"}, {"smiles": "N[C@@H](Cc1ccccc1)C(=O)O", "note": "[phenylalanine]", "chemotaxis (attraction of F2)": "not"}, {"smiles": "C[C@H](N)C(=O)O", "note": "[alanine]", "chemotaxis (attraction of F2)": "strongly attracted"}, {"smiles": "N[C@@H](Cc1c[nH]c2ccccc12)C(=O)O", "note": "[tryptophan]", "chemotaxis (attraction of F2)": "not"}, {"smiles": "N[C@@H](CCC(=O)O)C(=O)O", "note": "[glutamate]", "chemotaxis (attraction of F2)": "some degrees"}, {"smiles": "CC(C)[C@H](N)C(=O)O", "note": "[valine]", "chemotaxis (attraction of F2)": "strongly attracted"}, {"smiles": "CC(C)C[C@H](N)C(=O)O", "note": "[leucine]", "chemotaxis (attraction of F2)": "strongly attracted"}, {"smiles": "NCCCC(=O)O", "note": "[gamma amino butyric acid]", "chemotaxis (attraction of F2)": "strongly attracted"}, {"smiles": "N[C@@H](Cc1ccc(O)cc1)C(=O)O", "note": "[tyrosine]", "chemotaxis (attraction of F2)": "not"}, {"smiles": "N=C(N)NCCC[C@H](N)C(=O)O", "note": "[arginine]", "chemotaxis (attraction of F2)": "not"}, {"smiles": "CSCC[C@H](N)C(=O)O", "note": "[methionine]", "chemotaxis (attraction of F2)": "strongly attracted"}, {"smiles": "NC(=O)C[C@H](N)C(=O)O", "note": "[asparagine]", "chemotaxis (attraction of F2)": "not"}, {"smiles": "NC(=O)CC[C@H](N)C(=O)O", "note": "[glutamine]", "chemotaxis (attraction of F2)": "not"}, {"smiles": "NCCCC[C@H](N)C(=O)O", "note": "[lysine]", "chemotaxis (attraction of F2)": "not"}, {"smiles": "CC[C@H](C)[C@H](N)C(=O)O", "note": "[isoleucine]", "chemotaxis (attraction of F2)": "not"}]}]}
